Experiment: mn = molality of the nth substance listed, in mol/kg
Conditions: 101.33 kPa, Liquid; for viscosity: Capillary tube (Ostwald / Ubbelohde) method; for mass density: Vibrating tube method

[Cl-].[Na+] [sodium chloride] + O
Conditions | mass density, m1 = 0.1 [kg/m3] | mass density, m1 = 0.25 [kg/m3] | mass density, m1 = 0.5 [kg/m3] | mass density, m1 = 0.75 [kg/m3] | mass density, m1 = 1 [kg/m3] | viscosity, m1 = 0.1 [mPa·s] | viscosity, m1 = 0.25 [mPa·s] | viscosity, m1 = 0.5 [mPa·s] | viscosity, m1 = 0.75 [mPa·s] | viscosity, m1 = 1 [mPa·s]
288.15 K | 1003.33 | 1009.78 | – | 1029.45 | 1039.16 | 1.15 | 1.16 | 1.178 | 1.214 | 1.254
298.15 K | 1001.12 | 1007.29 | – | 1026.12 | 1036.18 | 0.901 | 0.91 | 0.932 | 0.959 | 0.991
308.15 K | 998.046 | 1003.48 | – | 1023.12 | 1032.47 | 0.728 | 0.74 | 0.756 | 0.78 | 0.812
318.15 K | 994.175 | 999.875 | 1009.78 | 1018.94 | 1028.31 | 0.605 | 0.61 | 0.63 | 0.65 | 0.676

Cn1c(=O)c2[nH]cnc2n(C)c1=O [3,7-dihydro-1,3-dimethyl-1H-purine-2,6-dione] + O
Conditions | mass density, 288.15 K [kg/m3] | mass density, 298.15 K [kg/m3] | mass density, 308.15 K [kg/m3] | mass density, 318.15 K [kg/m3] | viscosity, 288.15 K [mPa·s] | viscosity, 298.15 K [mPa·s] | viscosity, 308.15 K [mPa·s] | viscosity, 318.15 K [mPa·s]
m1 = 0.00208 | 999.241 | 997.153 | 994.165 | 990.343 | – | – | – | –
m1 = 0.00213 | – | – | – | – | 1.139 | 0.891 | 0.719 | 0.597
m1 = 0.00284 | – | – | – | – | 1.139 | 0.892 | 0.72 | 0.597
m1 = 0.00285 | 999.283 | 997.192 | 994.204 | 990.379 | – | – | – | –
m1 = 0.00378 | 999.333 | 997.239 | 994.25 | 990.423 | – | – | – | –
m1 = 0.00394 | – | – | – | – | 1.14 | 0.892 | 0.72 | 0.598
m1 = 0.00479 | 999.388 | 997.291 | 994.3 | 990.472 | – | – | – | –
m1 = 0.00519 | – | – | – | – | 1.14 | 0.892 | 0.721 | 0.598
m1 = 0.00578 | 999.443 | 997.341 | 994.35 | 990.519 | – | – | – | –
m1 = 0.00617 | – | – | – | – | 1.141 | 0.893 | 0.722 | 0.599
m1 = 0.00689 | – | – | – | – | 1.141 | 0.893 | 0.722 | 0.599
m1 = 0.00699 | 999.509 | 997.404 | 994.41 | 990.578 | – | – | – | –
m1 = 0.00776 | 999.551 | 997.443 | 994.448 | 990.614 | – | – | – | –
m1 = 0.00819 | – | – | – | – | 1.142 | 0.894 | 0.723 | 0.599
m1 = 0.00921 | – | – | – | – | 1.142 | 0.895 | 0.723 | 0.6
m1 = 0.00934 | 999.638 | 997.526 | 994.528 | 990.691 | – | – | – | –
m1 = 0.00986 | 999.667 | 997.554 | 994.554 | 990.716 | – | – | – | –

Cn1c(=O)c2c(ncn2C)n(C)c1=O [caffeine] + O
Conditions | mass density, 288.15 K [kg/m3] | mass density, 298.15 K [kg/m3] | mass density, 308.15 K [kg/m3] | mass density, 318.15 K [kg/m3] | viscosity, 288.15 K [mPa·s] | viscosity, 298.15 K [mPa·s] | viscosity, 308.15 K [mPa·s] | viscosity, 318.15 K [mPa·s]
m1 = 0.00508 | – | – | – | – | 1.14 | 0.895 | 0.723 | 0.599
m1 = 0.0051 | 999.404 | 997.304 | 994.303 | 990.464 | – | – | – | –
m1 = 0.00693 | – | – | – | – | 1.142 | 0.896 | 0.724 | 0.6
m1 = 0.00695 | 999.505 | 997.399 | 994.39 | 990.545 | – | – | – | –
m1 = 0.009 | – | – | – | – | 1.144 | 0.896 | 0.724 | 0.601
m1 = 0.00902 | 999.619 | 997.504 | 994.488 | 990.637 | – | – | – | –
m1 = 0.01986 | – | – | – | – | 1.147 | 0.9 | 0.728 | 0.606
m1 = 0.01993 | 1000.22 | 998.06 | 995.013 | 991.121 | – | – | – | –
m1 = 0.02978 | – | – | – | – | 1.152 | 0.905 | 0.732 | 0.609
m1 = 0.02992 | 1000.77 | 998.576 | 995.497 | 991.571 | – | – | – | –
m1 = 0.03531 | 1001.07 | 998.853 | 995.759 | 991.812 | – | – | – | –
m1 = 0.03533 | – | – | – | – | 1.154 | 0.907 | 0.735 | 0.611
m1 = 0.03983 | – | – | – | – | 1.156 | 0.91 | 0.737 | 0.613
m1 = 0.04008 | 1001.34 | 999.101 | 996.001 | 992.025 | – | – | – | –
m1 = 0.04953 | – | – | – | – | 1.162 | 0.914 | 0.741 | 0.617
m1 = 0.04992 | 1001.89 | 999.619 | 996.484 | 992.483 | – | – | – | –

Cn1cnc2c1c(=O)[nH]c(=O)n2C [1H-purine-2,6-dione, 3,7-dihydro-3,7-dimethyl-] + O
Conditions | mass density, 288.15 K [kg/m3] | mass density, 298.15 K [kg/m3] | mass density, 308.15 K [kg/m3] | mass density, 318.15 K [kg/m3] | viscosity, 288.15 K [mPa·s] | viscosity, 298.15 K [mPa·s] | viscosity, 308.15 K [mPa·s] | viscosity, 318.15 K [mPa·s]
m1 = 0.00051 | 999.157 | 997.073 | 994.088 | 990.268 | 1.138 | 0.891 | 0.72 | 0.597
m1 = 0.0007 | 999.167 | 997.083 | 994.097 | 990.277 | 1.139 | 0.891 | 0.72 | 0.597
m1 = 0.0009 | 999.177 | 997.093 | 994.107 | 990.287 | 1.139 | 0.891 | 0.72 | 0.597
m1 = 0.00098 | 999.182 | 997.097 | 994.111 | 990.291 | 1.139 | 0.891 | 0.72 | 0.597
m1 = 0.00123 | 999.195 | 997.11 | 994.123 | 990.303 | 1.139 | 0.891 | 0.72 | 0.597
m1 = 0.00147 | – | – | – | – | 1.139 | 0.891 | 0.72 | 0.597
m1 = 0.00148 | 999.209 | 997.123 | 994.135 | 990.314 | – | – | – | –
m1 = 0.00182 | – | – | – | – | 1.139 | 0.891 | 0.72 | 0.597
m1 = 0.00183 | 999.228 | 997.141 | 994.152 | 990.331 | – | – | – | –
m1 = 0.00212 | – | – | – | – | 1.139 | 0.891 | 0.72 | 0.597
m1 = 0.00213 | 999.244 | 997.156 | 994.167 | 990.346 | – | – | – | –

Source: the NIST ThermoML archive (doi:10.1021/acs.jced.6b00273)
